Entries after “also recorded” stand apart in the source; their conditions may differ.
What was measured:
[1] = test system: Swiss common stock mice; test: Toxicity: lethal dose in mice, intravenous injection; format: in vivo; conditions: 300 μg, adrenalectomised mice
Protocol: The compound according to the invention has been compared with the lipopolysaccharide (LPS) prepared by the phenol-water procedure from S.enteriditis, with regard to their lethal doses (LD).
The method used to carry out these experiments is described by Chedid and al. in Ann. N.Y. Acad. Sci. 133:712, 1966. The tests are made on two month old Swiss common stock mice. The assayed products are administered by intravenous injections.
The compound according to the invention has been compared with the lipopolysaccharide (LPS) prepared by the phenol-water procedure from S.enteriditis with regard to their lethal dose (LD).
The method used to carry out these experiments is described by Chedid and al. in Ann. N.Y. Acad. Sci. 135:712, 1966. The tests are made on two month old Swiss common stock mice. The assayed products are administered by intravenous injection.

[2] = test system: Hartley guinea pigs; conditions: for immunogenicity, in words: conclusion from skin tests in guinea pigs; for hypersensitivity reaction, in words: guinea pigs treated with FIA + compound
Protocol: For comparison, simultaneous tests were carried out with Freund's complete adjuvant (FCA).
Hartley guinea pigs weighing 350 g are skin-tested. […] Forty-eight hours after this second injection, the diameter of reaction is measured (in mm).
The estimation is made as previously described.

[3] = test system: mice; test: Adjuvanticity in aqueous solution: antibody levels in mice after BSA plus adjuvant in saline (PHA, ABC); format: in vivo; conditions: for antibody ABC Day 14 / antibody ABC Day 28 / antibody PHA Day 14 / antibody PHA Day 28: primary response; for antibody ABC Day 34 / antibody ABC Day 36 / antibody PHA Day 34 / antibody PHA Day 36: secondary response (BSA recall day 30); for adjuvanticity in aqueous solution (antibody titer), in words: administered in saline with BSA, mice
Protocol: In these experiments, the antibody levels in mice are determined following the injection of various compositions. The injected compositions contain bovine serum albumin (BSA) as antigen and the adjuvant compound according to the invention. The mice used as controls received the BSA and lipopolysaccharides. The compositions are injected in solution in saline. The injected dose of BSA is 0.5 mg per mouse, the recall dose (30 days after the first injection) contains 0.1 mg of BSA. Each tested composition is administered to eight mice. At various time intervals following the injection, the mice are bled to check the antibody level.
The antibody estimation is made either by passive hemagglutination (PHA) using formalinized sheep red blood cells coated with the tested antigen, or according to the method taught by A. A. Hirata and M. W. Brandiss (J. Immunol., 100, 641-648, 1968), or by the so-called antigen binding capacity method as described by P. Minden and S. Farr (Handbook of Exp. Immunol., p. 463, Weir D. M. ed. Blackwell Scientific Pub., Oxford and Edinburgh, 1967). […]
The antibody estimation is made either by passive hemagglutination (PHA) using formalinized sheep red blood cells coated with the tested antigen, or according to method taught by A. A. Hirata and M. W. Brandiss (J. Immunol., 100, 641-648, 1968), or by the so-called antigen binding capacity method described by P. Minden and S. Farr (Handbook of Exp. Immunol., p. 463, Weir D. M. ed. Blackwell Scientific Pub., Oxford and Edinburgh, 1967).

[4] = test system: Hartley's guinea pigs; test: Adjuvanticity with a water in oil emulsion (comparative assay), ovalbumin antigen; format: in vivo; conditions: 50 μg compound with FIA + ovalbumin
Protocol: As previously, the adjuvanticity is estimated from the increase of the antibody level following an antigen injection. In these experiments, ovalbumin is used as antigen. Assays are carried out on Hartley's guinea pigs weighing 350 g. The animals are injected with 0.1 ml in each posterior footpad. Each dose contains 1 mg ovalbumin and either the Freund's complete adjuvant (FCA) or the Freund's incomplete adjuvant (FIA) or this one with the compound of the invention (50 μg). The antibody titer is estimated 21 days after the injection, by passive hemagglutination as indicated above, or by precipitation according to Folin's method.
A skin test for delayed hypersensitivity is made 18 days after the injection on the same animals. They received 5 μg of ovalbumin by intradermal injection. 48 hours later, the diameter of reaction is measured (in mm).

[5] = test system: mice; test: Reaction to influenza virus: adjuvanticity with influenza vaccine (hemagglutination inhibition); format: in vivo; conditions: vaccine + adjuvant compound versus vaccine only, vaccine recall after 30 days
Protocol: The adjuvanticity of the Mur-NAc-L-Ala-D-Glu-α-NH2 has been studied against the influenza vaccine on mice. The tested animals are injected with the vaccine and the adjuvant compound whereas controls only received the vaccine. Thirty days later, a recall containing only the vaccine is injected.
It is to be observed that the antibody level is much higher in animals which have received both vaccine and adjuvant compound than in controls. (The measure is made by hemagglutination inhibition following the method proposed by the World Health Organisation Comitee (1953).)

[6] = 100 μg per mouse + BSA in saline
[7] = 30 μg per mouse + BSA in saline
[8] = 300 μg per mouse + BSA in saline

| SMILES | survival after injection [1] | immunogenicity, in words [2] | hypersensitivity reaction, in words [2] | antibody ABC Day 14 [3, 6] | antibody ABC Day 28 [3, 6] | antibody PHA Day 14 [3, 6] | antibody PHA Day 28 [3, 6] | antibody ABC Day 34 [3, 6] | antibody ABC Day 36 [3, 6] | antibody PHA Day 34 [3, 6] | antibody PHA Day 36 [3, 6] | adjuvanticity in aqueous solution (antibody titer), in words [3] | further results |
| --- | --- | --- | --- | --- | --- | --- | --- | --- | --- | --- | --- | --- | --- |
| CC(=O)N[C@H]1C(O)O[C@H](CO)[C@@H](O)[C@@H]1O[C@H](C)C(=O)N[C@@H](C)C(=O)N[C@H](CCC(=O)O)C(=O)O (stereo partly drawn) [Mur-NAc-L-Ala-D-Glu(OH), 2-(2-acetamido-2-deoxy-3-O-D-glucopyranosyl)-D-propionyl-L-alanyl-D-glutamic acid] | All mice survived | not immunogenic | no hypersensitivity reaction is observed | < 20 | 80 | 3 | 50 | 320 | 630 | 400 | 2,130 | induces an enhancement of the antibody titer | antibody titer against ovalbumin, in words [4]: does not induce an increase of the antibody titer; skin test reaction to ovalbumin (delayed hypersensitivity), in words ([4]; compared with FCA): light |
| CC(=O)N[C@@H]1[C@@H](O[C@H](C)C(=O)N[C@@H](C)C(=O)N[C@H](CCC(=O)O)C(N)=O)[C@H](O)[C@@H](CO)O[C@H]1O [Mur-NAc-L-Ala-D-Glu-α-NH2, 2-(2-acetamido-2-deoxy-3-O-D-glucopyranosyl)-D-propionyl-L-alanyl-D-α-isoglutamine] | All the mice survived | not immunogenic | no hypersensitivity reaction is observed | < 20 | 82 | < 3 | 25 | 270 | 520 | 400 | 2150 | induces an enhancement of the antibody titer that can be compared with the one caused by injecting the LPS; also recorded: high antibody titers were observed | antibody level against influenza vaccine (hemagglutination inhibition), in words [5]: much higher; antibody ABC Day 14 [3, 7]: < 20; antibody ABC Day 28 [3, 7]: 75; antibody PHA Day 14 [3, 7]: 3; antibody PHA Day 28 [3, 7]: 25; antibody ABC Day 34 [3, 7]: 210; antibody ABC Day 36 [3, 7]: 400; antibody PHA Day 34 [3, 7]: 200; antibody PHA Day 36 [3, 7]: 800; antibody ABC Day 14 [3, 8]: < 20; antibody ABC Day 28 [3, 8]: 50; antibody PHA Day 14 [3, 8]: < 3; antibody PHA Day 28 [3, 8]: 25; antibody ABC Day 34 [3, 8]: 230; antibody ABC Day 36 [3, 8]: 550; antibody PHA Day 34 [3, 8]: 200; antibody PHA Day 36 [3, 8]: 975 |

Source: US4158052A, “Oil-free adjuvant compositions containing N-acetyl-muramyl-L-alanyl-D-isoglutamine” (priority 1975, dated 1979)
